Experimental findings from ChEMBL document CHEMBL1201862, “PubChem BioAssay data set” (2004) are described below.

Assay in all cases: growth of human tumour cells (NCI), 48 h
The test system of test [1] is ACHN.
Test [2] has as its system COLO 205.
Test [3] relates to SK-MEL-2.
The test system of test [4] is HCT-116.
In test [5] the test system is Hs-578T.
The subject of test [6] is NCI-H226.
The test system of test [7] is NCI-H522.
Test [8] concerns U-251.
The subject of test [9] is EKVX.
In test [10] the test system is HL-60.
The test system of test [11] is M14.
Test [12] concerns RPMI-8226.
Test [13] relates to KM12.
In test [14] the test system is SK-MEL-5.
The subject of test [15] is MDA-N.
Test [16] deals with MDA-MB-231.
Test [17] concerns Malme-3M.
Test [18] deals with TK-10.
The test system of test [19] is OVCAR-4.
For test [20], the system named is OVCAR-5.

Molecules are shown by their SMILES. Several values for one entry are separate records, joined by “and”; a condition that tells them apart may be missing. Equal values may be shown once.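 Five compound concentrations were applied to cells in 96-well plates for 48 hours; endpoints were derived by simple linear interpolation of the resulting dose-response curve. GI50 marks 50% less growth.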 Activity calls are given as the source filed them. No stated cut-off is given here; in the data, active = GI50 up to about 1.1 µM and inactive = higher.

Turning to `O/N=C/C1c2ccccc2-c2ccccc21`, the GI50 in test [1] was 16.4 µM (inactive); in test [2], 16.6 µM (inactive); in test [3], 17.1 µM (inactive); in test [4], 16.3 µM (inactive); in test [5] it was 18.7 µM (inactive); in test [6] it was 15 µM (inactive). Also, the GI50 in test [7] was 16.9 µM (inactive); in test [8] it was 19.4 µM (inactive); in test [9] it was 13.6 µM (inactive); in test [10] it was 31.3 µM (inactive); in test [11], 16.9 µM (inactive); in [12] it was 21.5 µM (inactive). Moreover, the GI50 in test [13] was 17.4 µM (inactive); in [14], 12.5 µM (inactive); in test [15], 14.2 µM (inactive); in [16], 14.6 µM (inactive); in test [17], 15.2 µM (inactive); in test [18], 18.9 µM (inactive).
`Cc1cc(NC(=O)NC(=O)c2ccccc2[N+](=O)[O-])ccc1Oc1ncc(Cl)cn1`: the GI50 in test [1] was 1.88 µM (inactive); in test [2], 0.107 µM (active); in [4], 0.082 µM (active); in [19], 14.1 µM (inactive); in test [5] it was 0.0257 µM (active); in test [6] it was 0.232 µM (active). The GI50 was 0.0402 µM (active) in test [7]; 0.0916 µM (active) in test [8]; 0.0327 µM (active) in test [10]; 0.0782 µM (active) in test [11]; 0.223 µM (active) in test [12]; 0.0519 µM (active) in test [13]. Further, the GI50 in test [14] is 0.0362 µM (active); in test [15] it was < 0.01 µM (active); in test [20], 16.5 µM (inactive); in [16], 0.664 µM (active); in test [17], 0.0231 µM (active); in test [18], 19.8 µM (inactive).
Consider `NC1=NC(=O)[C@H](CSCc2ccccc2)N1C(=O)OCc1ccccc1`, for which the GI50 in [1], in [2], in test [3], in test [4], in test [19] and in test [5] was > 100 µM (inactive) throughout. The GI50 in test [6], in [7], in [8], in test [9], in test [10] and in test [13] was > 100 µM (inactive) throughout. Moreover, the GI50 in test [14], in test [15], in test [20], in test [16], in test [17] and in test [18] was > 100 µM (inactive) in each case.
In the case of `CC(=O)NC(Cc1c[nH]cn1)C(=O)N1CCCC1C(N)=O` (stereo not drawn), the GI50 in test [1], in test [2], in test [4], in test [19], in [5] and in test [6] was > 100 µM (inactive) each time. Further, the GI50 in test [7], in test [8], in [9], in test [10], in test [11] and in test [12] was > 100 µM (inactive) in each case. The GI50 in test [13], in [14], in test [15], in test [20], in test [16] and in test [17] was > 100 µM (inactive) each time. For the same compound, the GI50 in test [18] is > 100 µM (inactive).
As for `O=c1oc2cc(/N=C/c3ccc4c(c3)OCO4)ccc2c2ccccc12`, the GI50 is 58.1 µM (inactive) in [1]; 56.6 µM (inactive) in test [2]; 92.9 µM (inactive) in test [3]; 46.3 µM (inactive) in test [4]; > 100 µM (inactive) in [19]; > 100 µM (inactive) in test [5]. In addition, the GI50 in test [6] was > 100 µM (inactive); in test [7] it was 56.8 µM (inactive); in [8], 43.1 µM (inactive); in test [9], 3.66 µM (inactive); in [10], > 100 µM (inactive); in test [11] it was > 100 µM (inactive). Also, the GI50 in test [13] is > 100 µM (inactive); in [14], 76.6 µM (inactive); in test [15], > 100 µM (inactive); in [20] it was > 100 µM (inactive); in [16] it was 77.4 µM (inactive); in [17], > 100 µM (inactive). Moreover, the GI50 in test [18] was 41.4 µM (inactive).
Regarding `N#Cc1c(-c2ccccc2)c(C#N)c(=S)n(C2OCC(O)C(O)C2O)c1N` (stereo not drawn), the GI50 in test [1], in test [3], in test [5], in [6], in test [7] and in test [10] was > 100 µM (inactive) throughout. For the same compound, the GI50 in [11], in test [12], in [13], in test [14], in test [15] and in test [20] was > 100 µM (inactive) in each case. In addition, the GI50 was > 100 µM (inactive) in [16]; > 100 µM (inactive) in test [17]; 30.8 µM (inactive) and 61.5 µM (inactive) in test [18].
Consider `Cc1ccc2c(c1)CC1(Cc3cc(C)ccc3C1=O)C2=O`, for which the GI50 in test [1], in test [3], in [4], in [19], in [5] and in test [7] was > 100 µM (inactive) each time. The GI50 in test [8], in test [9], in test [10], in test [11], in [12] and in test [14] was > 100 µM (inactive) each time. For the same compound, the GI50 in test [15], in [20], in test [16], in test [17] and in [18] was > 100 µM (inactive) in each case.
Regarding `N#C/C=C1\C=CC(O)C(O)C1OC1OC(CO)C(O)C(O)C1O` (stereo not drawn), the GI50 in test [1], in [2], in [3], in test [4], in test [19] and in [5] was > 100 µM (inactive) each time. Further, the GI50 in test [7], in [8], in test [9], in test [10], in test [11] and in [12] was > 100 µM (inactive) throughout. The GI50 in test [13], in test [14], in test [15], in test [20], in test [16] and in [17] was > 100 µM (inactive) in each case. Moreover, the GI50 in test [18] is > 100 µM (inactive).
